Experimental data taken from patent US20220409620A1, “REDUCING IMMUNOGENICITY TO PEGLOTICASE” (Horizon Pharma Rheumatology LLC, priority 2016, published 2022).
Read-outs that look alike come from different tables or passages of the source.

Assays:
[1] = tested on: adult patients with uncontrolled gout
Description: As used herein, an “adverse event” or “AE” refers to any untoward medical occurrence associated with the use of a drug in humans, whether it is considered drug-related or not. An AE or suspected adverse reaction is considered a “serious adverse event” or “SAE” if, in the view of either the Investigator or Sponsor, it results in any of the following outcomes: (1) Death, (2) Life-threatening: an AE is considered “life-threatening” if, in the view of either the Investigator or Sponsor, its occurrence places the subject or subject at immediate risk of death. […] (5) A congenital anomaly/birth defect; (6) Important medical events that may not result in death, be life-threatening, or require hospitalization may be considered serious when, based upon appropriate medical judgment, they may jeopardize the patient or subject and may require medical or surgical intervention to prevent one of the outcomes listed in this definition.
Safety Variables: Safety was assessed via AE and concomitant medication use monitoring, physical examinations, vital signs, clinical safety laboratory evaluations (hematology, chemistry, urine uric acid:creatinine ratio), pregnancy testing (if applicable), electrocardiograms (ECGs), and AEs of special interest (i.e., IRs, anaphylaxis, gout flares, and cardiovascular events).
AEs of special interest may include IRs, anaphylaxis, gout flares, and cardiovascular events.
Severity in accordance with the disclosure is reported according to the following: Grade 1 (Mild)—No interference with daily activity. Grade 2 (Moderate)—Some interference with daily activity but medical intervention not required (e.g., doctor visit and/or medication); over the counter medicine permitted. Grade 3 (Severe)—Prevents daily activity and requires medical intervention (e.g., doctor visit and/or medication). Grade 4 (Potentially Life-threatening)—Emergency room visit or hospitalization.
An AE was defined as any untoward event, whether or not it was considered related to the use of pegloticase or MTX. Any worsening (i.e., any clinically significant adverse change in frequency or intensity) of a preexisting condition which was temporally associated with the use of pegloticase or MTX was also considered an AE. Abnormal laboratory values or test results constitute AEs only if they induce clinical signs or symptoms or require therapy, and were recorded on the AE CRF under the signs, symptoms or were associated with diagnoses associated with them. Screening conditions were not considered AE; however, worsening of a preexisting condition may be considered an AE. AEs were collected starting at the baseline, Visit 1.
TEAEs during the Pegloticase+IMM Period were defined as events that occur after the start of the first pegloticase infusion through 30 days after the last dose of pegloticase and/or MTX or placebo for MTX (whichever was later). TEAEs that occur during the MTX Tolerability Assessment Period prior to randomization (Weeks −6 to −4) was summarized separately for the MTX population. […] AEs that occur more than 30 days after the last dose of pegloticase and/or MTX or placebo for MTX through the 6-month follow-up visit was also summarized.
The number and percentage of subjects experiencing AEs were summarized by system organ class and preferred term. Summaries by maximum severity and relationship to MTX and/or pegloticase was also provided. SAEs and AEs leading to discontinuation of MTX and/or pegloticase were presented by system organ class and preferred term.

[2] = Pegloticase serum concentrations (Cmax, Cmin), enzymatic/fluorescence assay, MIRROR OL; type: in vivo, human; conditions: with MTX Co-Treatment
Text: Pharmacokinetic and Anti-drug Antibody Measurements: Serum samples for PK analysis of pegloticase were collected prior to the pegloticase infusion and after the end of infusion (prior to discharge) on Day 1 and at the Weeks 2, 4, 6, 8 and 36 Visits or weeks 2, 6, 14, 24, 36, for the open-label and randomized studies, respectively, and prior to the pegloticase infusion only at the Weeks 10, 14, 18, 22, 24 (open-label study); at the End of Pegloticase Infusions Visit (if applicable); and the Week 52/End of Study/Early Termination Visits. Visits for frequent sampling of a subset of subjects who consent for additional non-infusion visit PK sampling occurred at Weeks 1 and 7 or at week 21 for the open-label and randomized studies, respectively.
An enzymatic/fluorescence assay was used to quantitate pegloticase concentrations in serum. In the assay, pegloticase catalyzes the conversion of UA to allantoin, thus releasing hydrogen peroxide (H2O2) and carbon dioxide. In the presence of horseradish peroxidase, H2O2 reacts with a 1:1 stoichiometry with Amplex Ultra Red (Molecular Probes, Inc., Eugene, Oreg.) to generate the red fluorescence oxidation product, resorufin. The concentration of resorufin, which is determined by fluorometry, is proportional to the amount of active pegloticase present in the serum samples. The lower limit of detection established in previous studies has been determined to be 0.6 μg/mL.
Methods: In the MIRROR OL trial, MTX (15 mg/week) was given orally 4 weeks prior to the first pegloticase dose and continued weekly, in combination with pegloticase 8 mg given intravenously every 2 weeks, for a treatment duration of up to 52 weeks. Pre-infusion samples were collected to measure MTX-PGs 1 to 5 in red blood cells at day 1, week 4, 8, 22, 24 and 36. […] Pegloticase concentrations in serum was measured using a validated enzymatic/fluorescence assay. The limit of quantification is 0.6 μg/mL. Anti-pegloticase/PEG IgG antibodies (ADA) were measured using a validated enzyme linked immunosorbent assay (ELISA). The analysis of MTX Polyglutamates was conducted by Exagen. The impact of MTX on pegloticase PK was evaluated by two methods: (1) Comparing pegloticase exposures (median Cmax and Cmin across visits) with MTX from the MIRROR OL trial to the observed levels in historical monotherapy Phase 3 studies (C0405 and C0406) (Lipsky et al., Arthritis Res Ther 16(2), 2014; Sundy et al., JAMA 306(7), 2011). Overlaying observed pegloticase concentrations with MTX against the 90% prediction band of pegloticase concentrations following monotherapy based on the population PK model from the Phase 3 data (Yue et al., ASCPT. Atlanta, 2010).

[3] = Stability of pegloticase diluted in infusion bags; type: physicochemical; conditions: at 2° C. to 8° C. and at room temperature (20° C. to 25° C.)
Description: Pegloticase diluted in infusion bags was stable for 4 hours at 2° C. to 8° C. (36° F. to 46° F.) and at room temperature (20° C. to 25° C., 68° F. to 77° F.); however, the diluted solution was stored under refrigeration, not frozen, protected from light, and used within 4 hours of dilution. Before administration, the diluted solution of pegloticase was allowed to reach room temperature. Pegloticase in a vial or IV infusion fluid was never subjected to artificial heating.

[4] = Methotrexate Run-in Period, ITT (N = 15)
[5] = Methotrexate Run-in Period, mITT (N = 14)

CN(Cc1cnc2nc(N)nc(N)c2n1)c1ccc(C(=O)N[C@@H](CCC(=O)O)C(=O)O)cc1 [MTX, methotrexate]
Infections And Infestations, % [1]: (13.3) % | Abdominal Discomfort, % [1, 4]: (13.3) % | Abdominal Discomfort, Incidence Rate [1, 4]: 1.8 Events/PY of MTX | Any TEAEs, % [1, 4]: (66.7) % | Any TEAEs, Incidence Rate [1, 4]: 18.2 Events/PY of MTX | Blood And Lymphatic System Disorders, % [1, 4]: (6.7) % | Blood And Lymphatic System Disorders, Incidence Rate [1, 4]: 1.8 Events/PY of MTX | Chronic Sinusitis, % [1, 4]: (6.7) % | Chronic Sinusitis, Incidence Rate [1, 4]: 0.9 Events/PY of MTX | Cough, % [1, 4]: (6.7) % | Cough, Incidence Rate [1, 4]: 0.9 Events/PY of MTX | Dental Caries, % [1, 4]: (6.7) % | Dental Caries, Incidence Rate [1, 4]: 0.9 Events/PY of MTX | Diarrhoea, % [1, 4]: (6.7) % | Diarrhoea, Incidence Rate [1, 4]: 0.9 Events/PY of MTX | Dry Eye, % [1, 4]: (6.7) % | Dry Eye, Incidence Rate [1, 4]: 0.9 Events/PY of MTX | Eye Disorders, % [1, 4]: (6.7) % | Eye Disorders, Incidence Rate [1, 4]: 0.9 Events/PY of MTX | Gastrointestinal Disorders, % [1, 4]: (33.3) % | Gastrointestinal Disorders, Incidence Rate [1, 4]: 5.5 Events/PY of MTX | Gout, % [1, 4]: (33.3) % | Gout, Incidence Rate [1, 4]: 5.5 Events/PY of MTX | Headache, % [1, 4]: (6.7) % | Headache, Incidence Rate [1, 4]: 0.9 Events/PY of MTX | Leukopenia, % [1, 4]: (6.7) % | Leukopenia, Incidence Rate [1, 4]: 0.9 Events/PY of MTX | Metabolism And Nutrition Disorders, % [1, 4]: (33.3) % | Metabolism And Nutrition Disorders, Incidence Rate [1, 4]: 5.5 Events/PY of MTX | Nasopharyngitis, % [1, 4]: (6.7) % | Nasopharyngitis, Incidence Rate [1, 4]: 0.9 Events/PY of MTX | Nausea, % [1, 4]: (13.3) % | Nausea, Incidence Rate [1, 4]: 1.8 Events/PY of MTX | Nervous System Disorders, % [1, 4]: (6.7) % | Nervous System Disorders, Incidence Rate [1, 4]: 0.9 Events/PY of MTX | Neutropenia, % [1, 4]: (6.7) % | Neutropenia, Incidence Rate [1, 4]: 0.9 Events/PY of MTX | Pruritus, % [1, 4]: (6.7) % | Pruritus, Incidence Rate [1, 4]: 0.9 Events/PY of MTX | Respiratory, Thoracic And Mediastinal Disorders, % [1, 4]: (6.7) % | Respiratory, Thoracic And Mediastinal Disorders, Incidence Rate [1, 4]: 0.9 Events/PY of MTX | Skin And Subcutaneous Tissue Disorders, % [1, 4]: (6.7) % | Skin And Subcutaneous Tissue Disorders, Incidence Rate [1, 4]: 0.9 Events/PY of MTX | Abdominal Discomfort, % [1, 5]: (14.3) % | Abdominal Discomfort, Incidence Rate [1, 5]: 2.0 Events/PY of MTX | Any TEAEs, % [1, 5]: (71.4) % | Any TEAEs, Incidence Rate [1, 5]: 20.0 Events/PY of MTX | Blood And Lymphatic System Disorders, % [1, 5]: (7.1) % | Blood And Lymphatic System Disorders, Incidence Rate [1, 5]: 2.0 Events/PY of MTX | Chronic Sinusitis, % [1, 5]: (7.1) % | Chronic Sinusitis, Incidence Rate [1, 5]: 1.0 Events/PY of MTX | Cough, % [1, 5]: (7.1) % | Cough, Incidence Rate [1, 5]: 1.0 Events/PY of MTX | Dental Caries, % [1, 5]: (7.1) % | Dental Caries, Incidence Rate [1, 5]: 1.0 Events/PY of MTX | Diarrhoea, % [1, 5]: (7.1) % | Diarrhoea, Incidence Rate [1, 5]: 1.0 Events/PY of MTX | Dry Eye, % [1, 5]: (7.1) % | Dry Eye, Incidence Rate [1, 5]: 1.0 Events/PY of MTX | Eye Disorders, % [1, 5]: (7.1) % | Eye Disorders, Incidence Rate [1, 5]: 1.0 Events/PY of MTX | Gastrointestinal Disorders, % [1, 5]: (35.7) % | Gastrointestinal Disorders, Incidence Rate [1, 5]: 6.0 Events/PY of MTX | Gout, % [1, 5]: (35.7) % | Gout, Incidence Rate [1, 5]: 6.0 Events/PY of MTX | Headache, % [1, 5]: (7.1) % | Headache, Incidence Rate [1, 5]: 1.0 Events/PY of MTX | Infections And Infestations, % [1, 5]: (14.3) % | Infections And Infestations, Incidence Rate [1, 5]: 2.0 Events/PY of MTX | Infections And Infestations, Total Events [1, 5]: 2 | Leukopenia, % [1, 5]: (7.1) % | Leukopenia, Incidence Rate [1, 5]: 1.0 Events/PY of MTX | Metabolism And Nutrition Disorders, % [1, 5]: (35.7) % | Metabolism And Nutrition Disorders, Incidence Rate [1, 5]: 6.0 Events/PY of MTX | Nasopharyngitis, % [1, 5]: (7.1) % | Nasopharyngitis, Incidence Rate [1, 5]: 1.0 Events/PY of MTX | Nausea, % [1, 5]: (14.3) % | Nausea, Incidence Rate [1, 5]: 2.0 Events/PY of MTX | Nervous System Disorders, % [1, 5]: (7.1) % | Nervous System Disorders, Incidence Rate [1, 5]: 1.0 Events/PY of MTX | Neutropenia, % [1, 5]: (7.1) % | Neutropenia, Incidence Rate [1, 5]: 1.0 Events/PY of MTX | Pruritus, % [1, 5]: (7.1) % | Pruritus, Incidence Rate [1, 5]: 1.0 Events/PY of MTX | Respiratory, Thoracic And Mediastinal Disorders, % [1, 5]: (7.1) % | Respiratory, Thoracic And Mediastinal Disorders, Incidence Rate [1, 5]: 1.0 Events/PY of MTX | Skin And Subcutaneous Tissue Disorders, % [1, 5]: (7.1) % | Skin And Subcutaneous Tissue Disorders, Incidence Rate [1, 5]: 1.0 Events/PY of MTX | Infections And Infestations, Incidence Rate ([1]; human, in vivo, 4 weeks): 1.8 Events/PY of MTX | Infections And Infestations, Total Events ([1]; human, in vivo, 4 weeks): 2 | tolerability of MTX ([1]; oral 15 mg/week, all patients): tolerated

pegloticase
Cmax BQL, % ([2]; Quantitation Limit 0.6 μg/mL): 0% | Cmax BQL, n/N ([2]; Quantitation Limit 0.6 μg/mL): 0/14 | Cmin BQL, % ([2]; Quantitation Limit 0.6 μg/mL): 36% | Cmin BQL, n/N ([2]; Quantitation Limit 0.6 μg/mL): 5/14 | Cmax, Median (Q1, Q3) ([2]; serum, BQL: below 0.6 μg/mL): 2.11 (1.65, 2.59) μg/mL | Cmin, Median (Q1, Q3) ([2]; serum, BQL: below 0.6 μg/mL): 1.03 (BQL, 1.23) μg/mL | stability of pegloticase diluted in infusion bags [3]: 4 h
